Target: truncated PI3Kα (p110α/iSH2 p85α) (Homo sapiens (Human), UniProt P42336)
Assay: PI3KA_Act fluorescence polarization kinase assay (Ki)
Type: biochemical
Settings: 1 mM ATP
Method in brief: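 Ki values result from fitting fluorescence polarization signals to the Morrison equation for tight-binding competitive inhibitors. The detector was GST-Grp1 PH domain with TAMRA-PIP3, read after a 30 min room-temperature reaction of 0.5 nM truncated PI3Kα and 30 μM PIP2 at pH 7.4 in HEPES/NaCl/MgCl2/DTT/CHAPS buffer. Compounds were tested as 12-point 3-fold dilutions from 3 μM.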

Chain of truncated PI3Kα (p110α/iSH2 p85α) (P42336 whole entry, the tested form may be a part): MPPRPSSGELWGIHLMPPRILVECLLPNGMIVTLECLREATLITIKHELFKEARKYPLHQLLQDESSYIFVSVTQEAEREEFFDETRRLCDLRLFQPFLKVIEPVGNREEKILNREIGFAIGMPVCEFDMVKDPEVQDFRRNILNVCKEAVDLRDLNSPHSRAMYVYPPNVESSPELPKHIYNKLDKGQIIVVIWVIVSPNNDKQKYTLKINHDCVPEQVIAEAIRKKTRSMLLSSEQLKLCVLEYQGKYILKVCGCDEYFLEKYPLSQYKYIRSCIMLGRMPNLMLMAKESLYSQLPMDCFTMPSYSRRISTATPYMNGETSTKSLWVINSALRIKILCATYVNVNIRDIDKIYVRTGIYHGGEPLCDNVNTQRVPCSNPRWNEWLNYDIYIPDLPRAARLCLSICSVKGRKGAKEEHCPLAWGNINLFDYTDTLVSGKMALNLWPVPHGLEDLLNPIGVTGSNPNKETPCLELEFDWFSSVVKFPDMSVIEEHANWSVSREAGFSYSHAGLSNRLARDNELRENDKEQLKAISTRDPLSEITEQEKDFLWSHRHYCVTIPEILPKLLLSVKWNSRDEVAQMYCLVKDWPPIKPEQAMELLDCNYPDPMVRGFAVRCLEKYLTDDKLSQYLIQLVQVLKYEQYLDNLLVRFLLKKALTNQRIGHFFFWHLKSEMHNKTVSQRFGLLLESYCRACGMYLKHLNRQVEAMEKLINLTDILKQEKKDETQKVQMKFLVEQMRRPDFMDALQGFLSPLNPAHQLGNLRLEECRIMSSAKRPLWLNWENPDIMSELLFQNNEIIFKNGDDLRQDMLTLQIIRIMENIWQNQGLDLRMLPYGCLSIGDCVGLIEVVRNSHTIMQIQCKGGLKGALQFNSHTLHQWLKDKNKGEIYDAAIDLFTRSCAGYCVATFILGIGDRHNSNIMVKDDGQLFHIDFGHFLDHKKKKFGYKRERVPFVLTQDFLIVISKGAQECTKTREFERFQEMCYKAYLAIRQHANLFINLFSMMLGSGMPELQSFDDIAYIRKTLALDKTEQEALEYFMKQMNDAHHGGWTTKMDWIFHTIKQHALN

Row | Structure (SMILES) | PI3KA_Act Ki
1 | COC(=O)N1CC(C)(N2CCc3c(-c4cnc(N)nc4)nc(N4CCOCC4)nc32)C1 [Example 247, methyl 3-[4-(2-aminopyrimidin-5-yl)-2-(morpholin-4-yl)-5,6-dihydro-7H-pyrrolo[2,3-d]pyrimidin-7-yl]-3-methylazetidine-1-carboxylate] | 0.055 nM
2 | CC(C)(C)OC(=O)N1CC(N2CCc3c(-c4cnc(N)nc4)nc(N4CCOCC4)nc32)C1 [Example 248, tert-butyl 3-[4-(2-aminopyrimidin-5-yl)-2-(morpholin-4-yl)-5,6-dihydro-7H-pyrrolo[2,3-d]pyrimidin-7-yl]azetidine-1-carboxylate] | 0.212 nM
3 | CC(C)(C)OC(=O)N1CC(C)(N2CCc3c(-c4cnc(N)nc4)nc(N4CCOCC4)nc32)C1 [Example 249, tert-butyl 3-[4-(2-aminopyrimidin-5-yl)-2-(morpholin-4-yl)-5,6-dihydro-7H-pyrrolo[2,3-d]pyrimidin-7-yl]-3-methylazetidine-1-carboxylate] | 0.019 nM
4 | CNC(=O)N1CC(C)(N2CCc3c(-c4cnc(N)nc4)nc(N4CCOCC4)nc32)C1 [Example 250, 3-[4-(2-aminopyrimidin-5-yl)-2-(morpholin-4-yl)-5,6-dihydro-7H-pyrrolo[2,3-d]pyrimidin-7-yl]-N,3-dimethylazetidine-1-carboxamide] | 0.120 nM
5 | Nc1ncc(-c2nc(N3CCOCC3)nc3c2CCN3C2CN(S(=O)(=O)C3CCC3)C2)cn1 [Example 251, 5-{7-[1-(cyclobutylsulfonyl)azetidin-3-yl]-2-(morpholin-4-yl)-6,7-dihydro-5H-pyrrolo[2,3-d]pyrimidin-4-yl}pyrimidin-2-amine] | 1.652 nM
6 | Nc1ncc(-c2nc(N3CCOCC3)nc3c2CCN3C2CN(S(=O)(=O)N3CCC3)C2)cn1 [Example 252, 5-{7-[1-(azetidin-1-ylsulfonyl)azetidin-3-yl]-2-(morpholin-4-yl)-6,7-dihydro-5H-pyrrolo[2,3-d]pyrimidin-4-yl}pyrimidin-2-amine] | 0.158 nM
7 | C[C@]1(N2CCc3c(-c4cnc(N)nc4)nc(N4CCOCC4)nc32)CCNC1.Cl [Example 253, 5-{7-[(3S)-3-methylpyrrolidin-3-yl]-2-(morpholin-4-yl)-6,7-dihydro-5H-pyrrolo[2,3-d]pyrimidin-4-yl}pyrimidin-2-amine hydrochloride] | 0.160 nM
8 | Cl.Nc1ncc(-c2nc(N3CCOCC3)nc3c2CCN3[C@@H]2CNC[C@@H]2F)cn1 [Example 254, 5-{7-[(3R,4S)-4-fluoropyrrolidin-3-yl]-2-(morpholin-4-yl)-6,7-dihydro-5H-pyrrolo[2,3-d]pyrimidin-4-yl}pyrimidin-2-amine hydrochloride] | 1.893 nM
9 | Cl.Nc1ncc(-c2nc(N3CCOCC3)nc3c2CCN3[C@H]2CNC[C@H]2F)cn1 [Example 255, 5-{7-[(3S,4R)-4-fluoropyrrolidin-3-yl]-2-(morpholin-4-yl)-6,7-dihydro-5H-pyrrolo[2,3-d]pyrimidin-4-yl}pyrimidin-2-amine hydrochloride] | 1.168 nM
10 | CC[C@@]1(N2CCc3c(-c4cnc(N)nc4)nc(N4CCOCC4)nc32)CCNC1.Cl [Example 256, 5-{7-[(3R)-3-ethylpyrrolidin-3-yl]-2-(morpholin-4-yl)-6,7-dihydro-5H-pyrrolo[2,3-d]pyrimidin-4-yl}pyrimidin-2-amine hydrochloride] | 1.131 nM
11 | CC[C@]1(N2CCc3c(-c4cnc(N)nc4)nc(N4CCOCC4)nc32)CCNC1.Cl [Example 257, 5-{7-[(3S)-3-ethylpyrrolidin-3-yl)-2-(morpholin-4-yl)-6,7-dihydro-5H-pyrrolo[2,3-d]pyrimidin-4-yl}pyrimidin-2-amine hydrochloride] | 0.955 nM
12 | C[C@]1(N2CCc3c(-c4cnc(N)nc4)nc(N4CCOCC4)nc32)CCNC1=O [Example 258, (3S)-3-[4-(2-aminopyrimidin-5-yl)-2-(morpholin-4-yl)-5,6-dihydro-7H-pyrrolo[2,3-d]pyrimidin-7-yl]-3-methylpyrrolidin-2-one] | 31.787 nM
13 | CC(=O)N1CC[C@@](C)(N2CCc3c(-c4cnc(N)nc4)nc(N4CCOCC4)nc32)C1 [Example 259, 1-{(3R)-3-[4-(2-aminopyrimidin-5-yl)-2-(morpholin-4-yl)-5,6-dihydro-7H-pyrrolo[2,3-d]pyrimidin-7-yl]-3-methylpyrrolidin-1-yl}ethanone] | 0.139 nM
14 | CCC(=O)N1CC[C@](C)(N2CCc3c(-c4cnc(N)nc4)nc(N4CCOCC4)nc32)C1 [Example 260, 1-{(3S)-3-[4-(2-aminopyrimidin-5-yl)-2-(morpholin-4-yl)-5,6-dihydro-7H-pyrrolo[2,3-d]pyrimidin-7-yl]-3-methylpyrrolidin-1-yl}propan-1-one] | 0.030 nM
15 | CCC(=O)N1CC[C@@](C)(N2CCc3c(-c4cnc(N)nc4)nc(N4CCOCC4)nc32)C1 [Example 261, 1-{(3R)-3-[4-(2-aminopyrimidin-5-yl)-2-(morpholin-4-yl)-5,6-dihydro-7H-pyrrolo[2,3-d]pyrimidin-7-yl]-3-methylpyrrolidin-1-yl}propan-1-one] | 0.143 nM
16 | CC(C)C(=O)N1CC[C@](C)(N2CCc3c(-c4cnc(N)nc4)nc(N4CCOCC4)nc32)C1 [Example 262, 1-{(3S)-3-[4-(2-aminopyrimidin-5-yl)-2-(morpholin-4-yl)-5,6-dihydro-7H-pyrrolo[2,3-d]pyrimidin-7-yl]-3-methylpyrrolidin-1-yl}-2-methylpropan-1-one] | <0.018 nM
17 | CC(C)C(=O)N1CC[C@@](C)(N2CCc3c(-c4cnc(N)nc4)nc(N4CCOCC4)nc32)C1 [Example 263, 1-{(3R)-3-[4-(2-aminopyrimidin-5-yl)-2-(morpholin-4-yl)-5,6-dihydro-7H-pyrrolo[2,3-d]pyrimidin-7-yl]-3-methylpyrrolidin-1-yl}-2-methylpropan-1-one] | 0.122 nM
18 | CC(C)(C)C(=O)N1CC[C@](C)(N2CCc3c(-c4cnc(N)nc4)nc(N4CCOCC4)nc32)C1 [Example 264, 1-{(3S)-3-[4-(2-aminopyrimidin-5-yl)-2-(morpholin-4-yl)-5,6-dihydro-7H-pyrrolo[2,3-d]pyrimidin-7-yl]-3-methylpyrrolidin-1-yl}-2,2-dimethylpropan-1-one] | <0.018 nM
19 | C[C@]1(N2CCc3c(-c4cnc(N)nc4)nc(N4CCOCC4)nc32)CCN(C(=O)CC#N)C1 [Example 265, 3-{(3S)-3-[4-(2-aminopyrimidin-5-yl)-2-(morpholin-4-yl)-5,6-dihydro-7H-pyrrolo[2,3-d]pyrimidin-7-yl]-3-methylpyrrolidin-1-yl}-3-oxopropanenitrile] | 0.048 nM
20 | C[C@@]1(N2CCc3c(-c4cnc(N)nc4)nc(N4CCOCC4)nc32)CCN(C(=O)CC#N)C1 [Example 266, 3-{(3R)-3-[4-(2-aminopyrimidin-5-yl)-2-(morpholin-4-yl)-5,6-dihydro-7H-pyrrolo[2,3-d]pyrimidin-7-yl]-3-methylpyrrolidin-1-yl}-3-oxopropanenitrile] | 0.139 nM
21 | C[C@@H](O)C(=O)N1CC[C@](C)(N2CCc3c(-c4cnc(N)nc4)nc(N4CCOCC4)nc32)C1 [Example 267, (2R)-1-{(3S)-3-[4-(2-aminopyrimidin-5-yl)-2-(morpholin-4-yl)-5,6-dihydro-7H-pyrrolo[2,3-d]pyrimidin-7-yl]-3-methylpyrrolidin-1-yl}-2-hydroxypropan-1-one] | 0.041 nM

Reference: US9260439B2, “Dihydropyrrolopyrimidine derivatives” (PFIZER INC., priority 2014, dated 2016)
